Results on three compounds are retold here after patent publication US20230265151A1, “GIP/GLP1 CO-AGONIST COMPOUNDS” (priority 2020, published 2023).

Common to all, as to type: cell-based
The target in one experiment is T1, hGIPR (Homo sapiens, UniProt P48546).
T1 construct: expressed in transfected cells
T1 sequence (P48546 22-466): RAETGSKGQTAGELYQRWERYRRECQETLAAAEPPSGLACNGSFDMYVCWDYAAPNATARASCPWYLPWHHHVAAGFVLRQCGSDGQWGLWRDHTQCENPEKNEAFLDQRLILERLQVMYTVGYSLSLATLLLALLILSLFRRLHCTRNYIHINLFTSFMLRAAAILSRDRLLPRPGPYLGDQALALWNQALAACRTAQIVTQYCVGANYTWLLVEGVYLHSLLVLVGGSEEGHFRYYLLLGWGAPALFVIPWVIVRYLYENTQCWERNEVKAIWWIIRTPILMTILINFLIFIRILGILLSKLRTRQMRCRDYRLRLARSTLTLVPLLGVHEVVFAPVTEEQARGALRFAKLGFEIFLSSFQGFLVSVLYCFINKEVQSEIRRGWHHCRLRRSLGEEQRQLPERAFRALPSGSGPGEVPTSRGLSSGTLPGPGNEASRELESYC
The experiment in a line: Functional cAMP formation (HTRF) in HEK-293 clonal cells expressing hGIPR, 0.1% bovine casein, without or with 1.0% human serum albumin. The settings on record: for Emax: read-out: hGIPR Emax, % ± SEM; for EC50: cAMP, 0.1% bovine casein (no human serum albumin), geometric mean, read-out: hGIPR EC50, nM (SEM, n). In a few lines: (§1)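 Cells were stimulated with peptide for 30 min at 37° C, then intracellular cAMP was measured by competitive HTRF (665/620 nm ratio) and converted to nM using a cAMP standard curve. Relative EC50 and Emax came from four-parameter logistic fits of percent maximal response against peptide concentration.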
For orientation: cAMP levels reflect the balance of adenylyl cyclase and phosphodiesterase activity.

Another experiment addresses T2, hGCGR (Homo sapiens, UniProt P47871).
T2 construct: expressed in transfected cells
In words: Functional cAMP formation (HTRF) in HEK-293 clonal cells expressing hGCGR, 0.1% bovine casein, without or with 1.0% human serum albumin. The note with it: read-out: hGCGR EC50, nM (SEM, n). In a few lines: as §1

A further experiment has as its target hGLP-1R (Homo sapiens, UniProt P43220). In words: Functional cAMP formation (HTRF) in HEK-293 clonal cells expressing hGLP-1R, 0.1% bovine casein, without or with 1.0% human serum albumin. Also noted: expressed in transfected cells. The settings on record: 37° C.; for Emax: read-out: hGLP-1R Emax, % ± SEM; for EC50: cAMP, read-out: hGLP-1R EC50, nM (SEM, n). In a few lines:
as §1

Setting [1] is: HEK293, cAMP, 37° C., 0.1% bovine casein, percent of maximal response to GIP(1-42)NH2, arithmetic mean.
Where [2] appears, read: cAMP, 37° C., 0.1% bovine casein (no human serum albumin), geometric mean.
Where [3] appears, read: HEK293, cAMP, 0.1% bovine casein, percent of maximal response to GLP-1(7-36)NH2, arithmetic mean.
Where [4] appears, read: 0.1% bovine casein (no human serum albumin), geometric mean.

Where two headings read alike, the source gives them in different places. *1 amine or outer side, *2 acyl side, *3 side chain or, on linkers, in order; H or OH if unused. Where a SMILES comes first, the peptide text is derived from it. Side-chain parts run from the residue outwards. [ ]: non-standard residue; d: D form. The star is where a group is joined. αMePhe(2-F) = C[C@](N)(Cc1ccccc1F)C(=O)O; γGlu = O=C(O)[C@H](CCC(=O)[*:2])N[*:1]; C14 diacid = O=C(O)CCCCCCCCCCCCC(=O)*; αMeY = C[C@](N)(Cc1ccc(O)cc1)C(=O)O; αMeF = C[C@](N)(Cc1ccccc1)C(=O)O; 4Pal = N[C@@H](Cc1ccncc1)C(=O)O; αMeL = CC(C)C[C@](C)(N)C(=O)O; Lauroyl = CCCCCCCCCCCC(=O)*; Orn = NCCC[C@H](N)C(=O)O; AEEA = NCCOCCOCC(=O)O; Aib = CC(C)(N)C(=O)O

Chain of hGLP-1R (P43220 24-463): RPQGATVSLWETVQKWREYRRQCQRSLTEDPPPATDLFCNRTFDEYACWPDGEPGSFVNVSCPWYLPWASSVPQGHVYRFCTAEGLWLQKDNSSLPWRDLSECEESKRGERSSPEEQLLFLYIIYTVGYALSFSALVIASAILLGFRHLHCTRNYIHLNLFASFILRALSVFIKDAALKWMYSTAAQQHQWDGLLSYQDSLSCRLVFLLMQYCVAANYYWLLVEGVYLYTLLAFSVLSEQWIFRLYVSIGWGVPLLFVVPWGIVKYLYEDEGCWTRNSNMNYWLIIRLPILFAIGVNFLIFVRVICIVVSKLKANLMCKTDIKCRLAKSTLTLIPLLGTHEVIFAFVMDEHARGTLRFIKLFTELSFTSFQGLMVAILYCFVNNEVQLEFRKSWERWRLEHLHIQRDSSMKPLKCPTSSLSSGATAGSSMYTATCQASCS
T2 sequence (P47871 26-477): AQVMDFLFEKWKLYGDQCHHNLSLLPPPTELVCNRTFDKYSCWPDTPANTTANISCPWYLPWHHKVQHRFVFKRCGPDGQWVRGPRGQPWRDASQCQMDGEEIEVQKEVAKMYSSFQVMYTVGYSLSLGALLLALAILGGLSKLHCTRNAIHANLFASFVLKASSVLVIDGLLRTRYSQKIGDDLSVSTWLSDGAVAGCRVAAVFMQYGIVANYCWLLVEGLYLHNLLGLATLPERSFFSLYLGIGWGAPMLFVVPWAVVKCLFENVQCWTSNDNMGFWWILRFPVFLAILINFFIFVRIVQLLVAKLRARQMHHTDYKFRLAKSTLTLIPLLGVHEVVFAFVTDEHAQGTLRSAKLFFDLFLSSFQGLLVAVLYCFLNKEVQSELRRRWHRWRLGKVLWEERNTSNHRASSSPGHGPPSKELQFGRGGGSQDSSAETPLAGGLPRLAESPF

`CC[C@H](C)[C@H](NC(=O)[C@H](CCCN)NC(=O)[C@H](CC(=O)O)NC(=O)[C@H](CC(C)C)NC(=O)[C@](C)(CC(C)C)NC(=O)[C@@H](NC(=O)[C@H](CO)NC(=O)[C@H](Cc1ccc(OC)cc1)NC(=O)[C@H](CC(=O)O)NC(=O)[C@H](CO)NC(=O)[C@@H](NC(=O)[C@](C)(Cc1ccccc1F)NC(=O)[C@@H](NC(=O)CNC(=O)[C@H](CCC(=O)O)NC(=O)C(C)(C)NC(=O)[C@@H](N)Cc1ccc(O)cc1)[C@@H](C)O)[C@@H](C)O)[C@@H](C)CC)C(=O)N[C@@H](C)C(=O)N[C@@H](CCC(N)=O)C(=O)NC(C)(C)C(=O)N[C@@H](CCCCNC(=O)COCCOCCNC(=O)COCCOCCNC(=O)CC[C@H](NC(=O)CCCCCCCCCCCCC(=O)O)C(=O)O)C(=O)N[C@@H](Cc1ccccc1)C(=O)N[C@H](C(=O)N[C@H](CCC(=O)O)C(=O)N[C@@](C)(Cc1ccc(O)cc1)C(=O)N[C@@H](CC(C)C)C(=O)N[C@H](C(=O)N[C@@H](CCC(=O)O)C(=O)NCC(=O)NCC(=O)N1CCC[C@H]1C(=O)N[C@@H](CO)C(=O)N[C@@H](CO)C(=O)NCC(=O)N[C@@H](C)C(=O)N1CCC[C@H]1C(=O)N1CCC[C@H]1C(=O)N1CCC[C@H]1C(=O)N[C@@H](CO)C(=O)N[C@@H](CCCCNC(=O)COCCOCCNC(=O)COCCOCCNC(=O)CC[C@H](NC(=O)CCCCCCCCCCCCC(=O)O)C(=O)O)C(N)=O)[C@@H](C)CC)[C@@H](C)CC` [Example 264] (H-Y[Aib]EGT[αMePhe(2-F)]TSDY(Me)SI[αMeL]LD[Orn]IAQ[Aib]K([AEEA-AEEA-γGlu-C14 diacid])FI[dE][αMeY]LIEGGPSSGAPPPSK([AEEA-AEEA-γGlu-C14 diacid])-NH2): the Emax at hGIPR (HEK293, 0.1% bovine casein and 1.0% human serum albumin, 37° C., percent of maximal response to GIP(1-42)NH2) was found to be 84.4%; at hGIPR (setting [1]), 114%; at hGLP-1R (HEK293, 0.1% bovine casein and 1.0% human serum albumin, percent of maximal response to GLP-1(7-36)NH2), 105%; on hGLP-1R (setting [3]) it was 113%. Besides, the EC50 is 0.0208 nM at hGIPR (37° C.); > 9950 nM at hGCGR (0.1% bovine casein and 1.0% human serum albumin, 37° C., geometric mean); > 9950 nM at hGCGR (setting [2]); 0.413 nM at hGLP-1R (setting [4]).

`CCCCCCCCCCCC(=O)N[C@@H](CCC(=O)NCCOCCOCC(=O)NCCOCCOCC(=O)NCCOCCOCC(=O)NCCCC[C@H](NC(=O)[C@H](CCCN)NC(=O)[C@H](CC(=O)O)NC(=O)[C@H](CC(C)C)NC(=O)[C@](C)(CC(C)C)NC(=O)[C@@H](NC(=O)C(C)(C)NC(=O)[C@H](Cc1ccncc1)NC(=O)[C@H](CC(=O)O)NC(=O)[C@H](CO)NC(=O)[C@@H](NC(=O)[C@](C)(Cc1ccccc1F)NC(=O)[C@@H](NC(=O)CNC(=O)[C@H](CCC(=O)O)NC(=O)C(C)(C)NC(=O)[C@@H](N)Cc1ccc(O)cc1)[C@@H](C)O)[C@@H](C)O)[C@@H](C)CC)C(=O)N[C@@H](C)C(=O)N[C@@H](CCC(N)=O)C(=O)NC(C)(C)C(=O)N[C@@H](CCC(=O)O)C(=O)N[C@@](C)(Cc1ccccc1)C(=O)N[C@H](C(=O)N[C@H](CCC(=O)O)C(=O)N[C@@](C)(Cc1ccc(O)cc1)C(=O)N[C@@H](CC(C)C)C(=O)N[C@H](C(=O)N[C@@H](CCCCNC(=O)COCCOCCNC(=O)COCCOCCNC(=O)COCCOCCNC(=O)CC[C@H](NC(=O)CCCCCCCCCCC)C(=O)O)C(=O)NCC(=O)NCC(=O)N1CCC[C@H]1C(=O)N[C@@H](CO)C(=O)N[C@@H](CO)C(=O)NCC(=O)N[C@@H](C)C(=O)N1CCC[C@H]1C(=O)N1CCC[C@H]1C(=O)N1CCC[C@H]1C(=O)N[C@@H](CO)C(N)=O)[C@@H](C)CC)[C@@H](C)CC)C(=O)O` [Example 438] (H-Y[Aib]EGT[αMePhe(2-F)]TSD[4Pal][Aib]I[αMeL]LD[Orn]K([AEEA-AEEA-AEEA-γGlu-Lauroyl])AQ[Aib]E[αMeF]I[dE][αMeY]LIK([AEEA-AEEA-AEEA-γGlu-Lauroyl])GGPSSGAPPPS-NH2): the maximal response (Emax) at hGIPR (HEK293, cAMP, 37° C., 0.1% bovine casein and 1.0% human serum albumin, percent of maximal response to GIP(1-42)NH2) turned out to be 90.8%; at hGIPR (setting [1]), 98.9%; on hGLP-1R (HEK293, cAMP, 0.1% bovine casein and 1.0% human serum albumin, percent of maximal response to GLP-1(7-36)NH2) it was 88.7%; at hGLP-1R (setting [3]), 88.5%. In addition, the 50% effective concentration (EC50) on hGIPR (37° C.) was 0.0157 nM; on hGCGR (setting [2]), > 9950 nM; at hGCGR (cAMP, 37° C., 0.1% bovine casein and 1.0% human serum albumin, geometric mean (SEM, n)) it was > 9950 nM; at hGLP-1R (setting [4]) it was 0.471 nM; at hGLP-1R (0.1% bovine casein and 1.0% human serum albumin, geometric mean (SEM, n)), 28 nM.

For the compound `CC[C@H](C)[C@H](NC(=O)[C@H](CC(C)C)NC(=O)[C@](C)(Cc1ccccc1)NC(=O)[C@H](CCC(=O)O)NC(=O)[C@@H](NC(=O)[C@H](Cc1ccccc1)NC(=O)[C@H](CCC(=O)O)NC(=O)C(C)(C)NC(=O)[C@H](CCC(N)=O)NC(=O)[C@H](C)NC(=O)[C@H](CCCCNC(=O)COCCOCCNC(=O)COCCOCCNC(=O)CC[C@H](NC(=O)CCCCCCCCCCCCC(=O)O)C(=O)O)NC(=O)[C@H](CCCN)NC(=O)[C@H](CC(=O)O)NC(=O)[C@H](CC(C)C)NC(=O)[C@](C)(CC(C)C)NC(=O)[C@@H](NC(=O)[C@H](CO)NC(=O)[C@H](Cc1ccncc1)NC(=O)[C@H](CC(=O)O)NC(=O)[C@H](CO)NC(=O)[C@@H](NC(=O)[C@](C)(Cc1ccccc1F)NC(=O)[C@@H](NC(=O)CNC(=O)[C@H](CCC(=O)O)NC(=O)C(C)(C)NC(=O)[C@@H](N)Cc1ccc(O)cc1)[C@@H](C)O)[C@@H](C)O)[C@@H](C)CC)[C@@H](C)CC)C(=O)N[C@@H](CCC(=O)O)C(=O)NCC(=O)NCC(=O)N[C@@H](CCCCNC(=O)COCCOCCNC(=O)COCCOCCNC(=O)CC[C@H](NC(=O)CCCCCCCCCCCCC(=O)O)C(=O)O)C(=O)N[C@@H](CO)C(=O)N[C@@H](CO)C(=O)NCC(=O)N[C@@H](C)C(=O)N1CCC[C@H]1C(=O)N1CCC[C@H]1C(=O)N1CCC[C@H]1C(=O)N[C@@H](CO)C(N)=O` [Example 159] (H-Y[Aib]EGT[αMePhe(2-F)]TSD[4Pal]SI[αMeL]LD[Orn]K([AEEA-AEEA-γGlu-C14 diacid])AQ[Aib]EFIE[αMeF]LIEGGK([AEEA-AEEA-γGlu-C14 diacid])SSGAPPPS-NH2), the Emax at hGIPR (HEK293, percent of maximal response to GIP(1-42)NH2, 37° C., 0.1% bovine casein, arithmetic mean) came to 95.3%; at hGLP-1R (HEK293, percent of maximal response to GLP-1(7-36)NH2, 0.1% bovine casein, arithmetic mean), 89.4%. In addition, the EC50 at hGIPR (incubated at 37° C.) is 0.0198 nM; at hGCGR (cAMP, incubated at 37° C., 0.1% bovine casein (no human serum albumin), geometric mean), > 9950 nM.

In general, Emax refers to the greatest response seen or fitted, relative to the assay's reference. Usually EC50 stands for the concentration giving half of the maximal effect.
